Source: patent US11986466B2, “Methods of treating solid tumors with CCR2 antagonists” (CHEMOCENTRYX, INC., priority 2018, dated 2024)
Entries after “also recorded” stand apart in the source; their conditions may differ.

Legend:
[1] = tested on: MBL2 tumors; test: MBL2/DNFB mouse ear skin T cell lymphoma model: tumor growth (ear thickness, ear weight); assay type: in vivo, C57BL/6 mice
Method: Animals and cell lines. Female C57BL/6 mice (6-8 weeks old) were purchased from Charles River (Hollister, CA) and housed in animal facilities at University of California Davis (UCDAVIS), Sacramento, CA All animal experiments were conducted in accordance with the guidelines and approval of the Institutional Animal Care and Usage Committee at UCDAVIS. The MBL2 cell line is an established cell line derived from Moloney MuLV-induced T-cell lymphoma in C57BL/6 mice, in which the gag gene was deleted from the genome in order to lower virus-dependent immunogenicity. MBL2 cells were cultured in DMEM (Invitrogen, Carlsbad, CA) with 10% heat-inactivated FBS.
Establishment of MBL2 tumors in mice. The method of establishing mouse ear skin tumors was previously described, Briefly, PBS-washed MBL2 cells (4×10^5 in 20 μl PBS) were injected into the dermal space under the central dorsal surface of the ears and above the cartilage plane using a 28 g needle. Mice were then topically treated one time with DNFB (1-Fluoro-2, 4-dinitrobenzene, 0.5% in a vehicle consisting of 4:1 (v/v) acetone and olive oil, 10 μl/ear) (Sigma, St. Louis, CA) on dorsal ear skins. Tumor growth was assessed for maximum ear thickness using a digital caliper, or by weight for the whole tumor-bearing ears removed from ear baseline. The endpoint determination is based on the allowed maximal ear tumor size, or local erosion and bleeding, which usually occurred within two weeks after implantation.
Tumor treatment by CCR2 antagonist and/or anti-PD1. Small molecule compounds, Compound 1, either in a high concentration (6 mg/ml) or a low concentration (2 mg/ml), as well as vehicle control were all provided by ChemoCentryx (Mountain View, CA) in a lab-ready formulation. In therapeutic application, oral administration through gavage of Compound 1 or vehicle started on the same day of MBL2 cell inoculation, usually two hours apart. Compound 1 was administrated once a day (60 mg/kg for high dose or 20 mg/kg for low dose) for up to two weeks following tumor implantation. […]

[2] = Plasma concentration of Compound 1 after daily oral dosing; assay type: in vivo, mice
Method: (§1) (A) Mice were orally dosed for Compound 1 daily at a lower concentration (20 mg/kg per day) or a higher concentration (60 mg/kg per day) for consecutive ten days. Plasma concentration of Compound 1 was detected by chemistry analyst 24 hours after the last dosing. (B) The same groups of mice in panel (A) were recorded for body weight before the first and after the last oral administration (n=4 per group). Statistical analysis is performed by two-way ANOVA in GraphPad PRISM (GraphPad Software, San Diego, CA).
(§2) Compound 1 is an orally-bioavailable CCR2 antagonist. […] For the experimental treatment regimen, we administered Compound 1 daily via oral gavage, starting on the same day of tumor implantation (FIG. 1a). […] Thus, Compound 1 blocked tumor growth in an inflammation and macrophages dependent model of T cell lymphoma.

[3] = Body weight and tolerability after daily oral dosing; assay type: in vivo, mice; details: 20 or 60 mg/kg daily oral
Method: as §1, §2

[4] = tested on: CD11b+/F4/80+ macrophages; test: Flow cytometry of macrophages in ear tumor microenvironment; assay type: in vivo, C57BL/6 mice
Description: (§3) FIG. 3A-D. Compound 1 specifically targets macrophages, but not neutrophils. (A, B) Macrophages, defined by the CD11b+/F4/80+ cell populations in flow analysis, were presented in either percentage or absolute numbers in ear TME after only two daily doses of Compound 1 (dosages are indicated in the figure, * p<05, ** p<01 vs vehicle control). (C, D) Single cell suspension from the same tissues as in (A) were stained with antibodies for CD11b, F4/80, CCR2, Ly6G, and Ly6C. Cells gated on CD11b were further analyzed to differentiate the subpopulations. Solid circles indicate the cells which are targeted by Compound 1. Dotted circles circles indicate the cells which are not blocked by Compound 1.
(§4) Flow cytometry for mouse ear tissues, lymph nodes, and spleens. Anti-mouse CD45 (clone 30-F11), CD11b (M1/70), F4/80 (BM8), Ly6G (1A8), Ly6C (HK1.4), IFN-γ (XMG1.2) and CD8 (5H10-1) Abs were purchased from BioLegend (San Diego, CA). Ears or tumor tissues were digested to obtain skin cell suspensions as described, Lymph nodes or spleens were directly minced and filtered through cell strainers with 100 μm micron pores (Thermo Fisher Scientific, Waltham, MA). Red blood cells in the spleen samples were removed by RBC lysis buffer (BioLegend). Intracellular staining was done after incubating cells for 4 h with brefeldin A and PMA/ionomycin as described. Flow cytometry was performed using an Acuri C6 or LSR II (BD Biosciences, San Jose, CA) in conjunction with FlowJo analysis software (Tree Star, San Carlos, CA).

[5] = tested on: neutrophil-like cells (CD11b- and Ly6G-positive cells); test: Flow cytometry of neutrophils / neutrophil-like cells in ear tumor microenvironment; assay type: in vivo, C57BL/6 mice
Description: as §3
(§5) FIG. 4A-D. Enhanced inflammation is associated with CCR2 antagonism by Compound 1 in the tumor microenvironment. (A, B) Ear tissues were collected from mice treated by Compound 1 (60 mg/kg) or vehicle on day 7. Representative images for HE sections and IHC staining with anti-F4/80 were shown for the ear tissues from Compound 1 and vehicle treated group. (C, D) Ears from day 7 were also analyzed by flow cytometry to quantify the numbers of the two major myeloid subpopulations in TME with antibodies for CD11b, F4/80 and Ly6G.
as §4

[6] = H&E histology and appearance of tumor-bearing ears; assay type: in vivo, C57BL/6 mice; details: day 7, 60 mg/kg
Method: as §5
(§6) H&E and Histoimmunochemistry. After mouse ear tumors were surgically removed at the ear base, the ear sample was cut into two parts along the long axis and placed in RNA later for RNA extraction or into 10% formalin for hematoxylin and eosin (H&E) staining or immunohistochemical staining with purified mouse antibodies (anti-CD8 and anti-F4/80 from Biolegend, San Diego, CA).

[7] = tested on: F4/80+ macrophages; test: IHC staining of ear tissue with anti-F4/80; assay type: in vivo, C57BL/6 mice; details: day 7, 60 mg/kg oral daily
Method: as §5, §6

[8] = tested on: cytokines and biomarkers produced from the TME; test: Quantitative RT-PCR of cytokines and biomarkers in ear tissues; assay type: in vivo, C57BL/6 mice
Method: FIG. 5A-C. Compound 1 treatment altered the expression of cytokines and biomarkers produced from the TME. Quantitative RT-PCR was performed for the ear tissues collected on day 7. Genes that are involved in cancer inflammation and immunity crosstalk are selectively detected. Comparative expression is performed between the Compound 1 and vehicle treated groups. […] Gene expression values are normalized to endogenous expression of GAPDH (* p<05, ** p<0.01; n=3 mice per group).
FIG. 6. Compound 1 treatment altered the expression of cytokines and biomarkers produced from the TME. Quantitative RT-PCR was performed for the ear tissues collected on day 7. Genes that are involved in immune suppression and anti-inflammation are selectively detected. Comparative expression is performed between the Compound 1 and vehicle treated groups. Gene expression values are normalized to endogenous expression of GAPDH (n=3 mice per group).
Quantitative real-time PCR. RNA (<2 μg per sample) was converted into cDNA with the high-capacity first-strand cDNA Kit (Qiagen). Real-time PCR was performed on a StepOne Plus Real-time PCR system (Applied Biosystem, Carlsbad, CA). QPCR primer pairs were purchased from Integrated DNA technologies (Coralville, Iowa).

[9] = tested on: CD8+ T cells; test: IHC staining of tumor tissue with CD8a antibody; assay type: in vivo, C57BL/6 mice; details: two weeks of treatment, dose-dependent, vs untreated and vehicle
Method: (§7) FIG. 7A-E. CD8 T cells are compulsory in CCR2 antagonist-mediated anti-tumor immunity. (A) Tumor tissues were collected from mice euthanized after two weeks of treatment. Groups are as indicated in the graph. IHC staining with CD8a antibody was performed. The numbers of CD8 positive T cells were counted by taking three random images of HPF (high power field) in each section from all four mice per group. (B) Scheme for neutralizing CD8 T cells along with Compound 1 treatment. Neutralizing anti-CD8 or rat-IgG2a was administrated via intraperitoneal injection one day before MBL2 tumor inoculation followed by a second dose after 7 days. Tumor formation was examined in two weeks after the treatment with Compound 1 or vehicle. (C) Mice treated in experiment (B) were euthanized on day 3 for flow analysis of the cervical draining lymph nodes in order to determine the effect of CD8 depletion (three mice per group). (D) Mice were euthanized on day 15 after the two weeks of Compound 1/vehicle treatment with or without CD8 T cell neutralization. Ear thickness is measured for presenting tumor size. (E) Draining lymph nodes are also measured for the lymph node metastasis (n=4).
H&E and Histoimmunochemistry. […]

[10] = tested on: MBL2 tumors; test: Cervical draining lymph node size (lymph node metastasis) in DNFB-MBL2 model; assay type: in vivo, C57BL/6 mice; details: day 15, Compound 1 alone
Method: as §7
Next, we administrated neutralizing CD8 antibodies by IP injection concurrently with the Compound 1 treatment (FIG. 7B). […]

[11] = tested on: pancreatic ductal adenocarcinoma (PDAC); details: orally dosed, phase 1b study; cited from earlier work
[12] = day 15, 20 or 60 mg/kg oral daily, vs untreated or vehicle
[13] = ear tumors, treated two days after tumor implantation, 20 or 60 mg/kg oral
[14] = day 7, vs vehicle, normalized to GAPDH

C[C@H]1CN([C@@H]2CC[C@@](C(=O)N3COc4c(cc(C(F)(F)F)cc4C(F)(F)F)C3)(C3CC3)OC2)CC[C@@H]1c1cccc(C(=O)O)c1 [Compound 1]
ear thickness [1, 12]: significantly reduced
ear weight [1, 12]: significantly reduced
tumor growth / tumor size ([1]; single agent, two weeks of treatment, vs vehicle/control): smaller and sometimes nearly eradicated; also recorded: visible reduction in tumor growth; also recorded: inhibits tumor growth; also recorded: effectively delay the tumor growth, but was unable to eliminate the tumors
plasma concentration ([2]; 20 or 60 mg/kg daily oral gavage for ten days, 24 hours after last dosing): correlated well to the feeding doses; also recorded: dose-dependently absorptive
oral bioavailability ([2]; oral): orally-bioavailable
tolerability / side effects [3]: well tolerated; also recorded: without side effects
weight changes ([3]; ten days): ≤ 20%
CD11b+/F4/80+ macrophages, absolute numbers in whole ears [4, 13]: significantly decreased
CD11b+/F4/80+ macrophages, percentage values of live cells [4, 13]: significantly decreased
macrophages in the skin (flow cytometry) ([4]; oral administration for two days after tumor initiation, vehicle 17.7%): 2.78 % of total leukocytes
accumulation of neutrophils in the TME ([5]; after two daily doses): not blocked
relative abundance of neutrophils in the TME ([5]; after two daily doses): increased
numbers of neutrophils / neutrophil-like cells in the TME ([5]; one week (day 7) of treatment, 60 mg/kg oral daily, vs vehicle, 60 mg/kg): significantly larger numbers of neutrophils; also recorded: significant increase
tumor cell necrosis [6]: results in tumor cell necrosis
macrophages in the TME by IHC anti-F4/80 [7]: largely absent
IL-10 expression in ears ([8]; day 7, vs controls): similarly expressed
TGF-beta expression in ears ([8]; day 7, vs controls): similarly expressed
CCL2 expression in the TME ([8]; day 7, vs vehicle): Upregulation
CCL7 expression in the TME ([8]; day 7, vs vehicle): Upregulation
CXCL1/2 expression in the TME ([8]; day 7, vs vehicle): noticeably increased
IL-1beta expression in ears ([8]; day 7, vs vehicle): upregulated to variable extents
IL-6 expression in ears ([8]; day 7, vs vehicle): upregulated to variable extents
IL-12 expression in ears ([8]; day 7, vs vehicle): found to increase
IL-17a expression in ears ([8]; day 7, vs vehicle): upregulated to variable extents
S100A8/9 expression in the TME ([8]; day 7, vs vehicle): noticeably increased
granzyme B expression in ears ([8]; day 7, vs vehicle): consistent upregulation
CXCL10 mRNA level in ears [8, 14]: significantly increased
CXCL11 mRNA level in ears [8, 14]: significantly increased
IFN-γ mRNA level in ears [8, 14]: significantly increased
numbers of CD8+ T cells in the tumor/TME (IHC) [9]: significantly larger numbers of CD8+ T cells; also recorded: markedly increased
cervical draining lymph node size [10]: reduction of cervical LN size

O=C(NCC(=O)N1CC[C@H](N[C@H]2CC[C@@](O)(c3ccc(-c4ncccn4)cn3)CC2)C1)c1cccc(C(F)(F)F)c1 [PF-04136309]
TAM infiltration [11]: reduction in TAM infiltration
anti-tumor immune response [11]: endogenous anti-tumor immune response
